What was measured:
[1] = tested on: LIN28B; test: Immunoblot of LIN28B in propranolol-treated iPSCs; format: cell-based, human; conditions: 50 μM, 72 h, vs vehicle control
Protocol: (§1) Briefly, freshly dissected IH tissues were digested in 0.2% collagenase A (Roche Diagnostics, Indianapolis, IN). […] HemSCs were maintained in EBM-2 SingleQuot media Supplemented with 20% FBS.
Immunoblot analyses were performed as previously described^34 using 24 ng/ml antibodies against GAPDH (Cell Signaling Technology Cat #2118L RRID:AB_561053), […] antibodies against LIN28B (Abcam Cat #ab71415 RRID:AB_2135050) followed by IRDye 680 donkey anti-rabbit IGG secondary antibodies (0.2 μg/ml, LI-COR, 926-68073 RRID: AB_10954442). Immunoblots were imaged using the Odyssey Infrared Imaging System (LI-COR) and quantified using Image Studio software (LI-COR).

[2] = tested on: iPSCs; test: WST1 proliferation assay; format: cell-based, human; conditions: 50 μM, 72 hours
Protocol: iPSCs were grown in 6 well plates and split 1:10 at 3-day intervals. […] WST1 proliferation assays were performed as previously described^29.

[3] = tested on: hemangioma stem cells; conditions: cited from earlier work
[4] = tested on: iPSCs; test: Bright field morphology of propranolol-treated iPSCs; format: cell-based, human; conditions: 50 μM, 72 h, compared to control
[5] = tested on: iPSCs; test: sRNAseq analysis of miRNA cistrons in propranolol-treated iPSCs
[6] = tested on: iPSCs; test: mRNA sequencing (RNAseq) and gene set enrichment analysis of propranolol-treated iPSCs; format: cell-based, human; conditions: 50 μM
Protocol: as §1
The cDNA library preparation was completed by second strand synthesis using SuperScript III, alkaline RNA hydrolysis, and PCR amplification for 10 cycles. mRNA libraries were prepared by utilizing the Illumina TruSeq Stranded mRNA LT protocol using 500 ng total RNA and NEB's Protoscript II reverse transcriptase for the first-strand cDNA synthesis according to the manufacturer's protocol. Individual RNAseq libraries were quality controlled on an Agilent TapeStation with a High Sensitivity D1000 ScreenTape. […] The libraries were sequenced on an Illumina NextSeq 500 sequencer 75-bp paired-end in mid-output mode in the Genomics Core Facility of The Rockefeller University.
The miRNA read annotation for sRNAseq experiments was performed as previously described^36, 37 using an slightly updated, manually curated miRNA reference based on previous work 38. […] The RNAseq data was aligned to the Human Genome Build 38 using the STAR aligner^40 (version 2.0.4j) allowing for two mismatches.
All data were tested for normality.

[7] = tested on: iPSCs; test: qRT-PCR analysis of miRNAs and genes in propranolol-treated iPSCs; format: cell-based, human; conditions: 50 μM
[8] = tested on: LIN28B; test: Dual immunofluorescence staining of LIN28B and GLUT1 in IH sections from propranolol-treated patients; format: in vivo, human
Protocol: Paraffin embedded infantile hemangioma and placenta sections (10 μm) were immunostained with primary antibodies against LIN28B 40 ug/ml (Abcam Cat #ab71415, RRID:AB_2135050) and GLUT1 3.4 ug/ml (Abcam Cat #ab40084, RRID:AB_2190927) overnight at 4° C. Sections were washed 3 times in PBS and incubated with 4 ug/ml secondary antibody Alexa Fluor 488 (Life Technologies Cat #a21202, RRID:AB_141607) for GLUT1 and alexa fluor cy3 (Life Technologies Cat #a10520, RRID:AB_2534029) for LIN28B for 30 minutes at room temperature. The sections were then washed with PBS and mounted with ProLong Diamond Antifade Mountant with DAPI, (Invitogen). Confocal images were obtained using an Olympus FV 1200 instrument. Immunofluorescence intensities were measured using ImageJ software as described^33. Fluorescence intensities were normalized to background intensities of secondary antibody only controls.

[9] = tested on: mir-498(46); conditions: previous work (ref. 7); cited from earlier work
[10] = iPSCs, 50 μM, 72 h, vs vehicle control

For `CC(C)NCC(O)COc1cccc2ccccc12` (centres unmarked) [Propranolol], the “decrease in LIN28B protein levels” value [1] is given as 2.3 fold, the “decrease in cell proliferation” value [2] is given as 33% and the “adipogenesis in hemangioma stem cells” value [3] is given as “induce adipogenesis”. For the same molecule, the “EMT associated morphological changes” value [4] was “more elongated cellular shape”, the “downregulation of mir-498(46)” value [5, 10] was 1.6 fold and the “increase in expression of cistron mir-98(13)” value [5, 10] was 3.2 fold. For the same molecule, the “Normalized frequency, cistron mir-10a(1)” value ([5]; propranolol-treated iPSCs) was 0.0168%, the “Normalized frequency, cistron mir-10b(1)” value ([5]; propranolol-treated iPSCs) was 0.0176% and the “Normalized frequency, cistron mir-21(1)” value ([5]; propranolol-treated iPSCs) was 10.5844%. For the same molecule, the “Normalized frequency, cistron mir-33b(1)” value ([5]; propranolol-treated iPSCs) was 0.002%, the “Normalized frequency, cistron mir-98(13)” value ([5]; propranolol-treated iPSCs) was 0.2313% and the “Normalized frequency, cistron mir-188(8)” value ([5]; propranolol-treated iPSCs) was 0.1459%. For the same molecule, the “Normalized frequency, cistron mir-488(1)” value ([5]; propranolol-treated iPSCs) was 0.0022%, the “Normalized frequency, cistron mir-498(46)” value ([5]; propranolol-treated iPSCs) was 0.4075% and the “Normalized frequency, cistron mir-1226(1)” value ([5]; propranolol-treated iPSCs) was 0%. For the same molecule, the “Normalized frequency, cistron mir-3155(1)” value ([5]; propranolol-treated iPSCs) was 0.0014%, the “SERPINE1 increase (RNAseq)” value ([6]; 72 h) was 12 fold and the “TWIST1 increase (RNAseq)” value ([6]; 72 h) was 2.9 fold. The “gene set analysis: TGF-β signaling pathway” value ([6]; 72 h, FDR 0.06) was “upregulation”, the “gene set analysis: adipogenesis pathway” value ([6]; 72 h, FDR 0.09) was “upregulation” and the “gene set analysis: E2F targets” value ([6]; 72 h, FDR<0.25) was “downregulation”. The “gene set analysis: G2M checkpoint” value ([6]; 72 h, FDR<0.25) was “downregulation”, the “gene set analysis: mitotic spindle pathway” value ([6]; 72 h, FDR<0.25) was “downregulation” and the “gene set enrichment: genes defining EMT” value ([6]; 72 h vs control, FDR 0.00046) was “enrichment”. The “SERPINE1 increased expression (qRT-PCR)” value ([7]; 72 h) was 8.4 fold, the “TWIST1 increased expression (qRT-PCR)” value ([7]; 72 h) was 5 fold and the “LIN28B mRNA levels” value ([7]; 72 h, data not shown) was “no significant differences”. The “increase in let-7a expression (qRT-PCR)” value ([7]; 72 hr) was > 1. 65 fold, the “miR-515-5p expression (qRT-PCR)” value ([7]; 72 hr) was “significant reduction” and the “miR-517a expression (qRT-PCR)” value ([7]; 72 hr) was “significant reduction”. The “miR-518C expression (qRT-PCR)” value ([7]; 72 hr) was “significant reduction”, the “miR-519d expression (qRT-PCR)” value ([7]; 72 hr) was “significant reduction” and the “LIN28B and GLUT1 immunostaining” value ([8]; propranolol-treated proliferative IH compared to untreated proliferative IH) was “markedly decreased”. For the same molecule, the “LIN28B to GLUT1 immunofluorescence signal intensity, increase in proliferative IH compared to propranolol treated IH” value ([8]; untreated proliferative IH vs propranolol treated IH samples) was roughly 2 fold and the “levels of mir-498(46) in propranolol-treated IH tumors vs proliferative IH” value [9] was “significantly lower levels”.

Reference: patent US12012637B2 (University of South Florida, priority 2017, dated 2024)
